Assay results taken from patent publication US20210369583A1, “COMPOSITIONS FOR PROVIDING SKIN CARE BENEFITS AND METHODS OF USE” (Danisco US Inc., priority 2018, published 2021).

Experiments:
MT-1H (Metallothionein) = test: Immunostaining of MT-1H in human skin explants, image analysis; format: cell-based; conditions: after pollutants exposure
Description: (§1) 59 human skin explants of an average diameter of 14 mm (±1 mm) were prepared on an abdoplasty coming from a person. The explants were kept in survival in BEM culture medium at 37° C. in a humid, 5%-CO2 atmosphere.
(§2) The tested products were topically applied on the basis of 2 μl per cm^2 and spread using a small spatula twice a day (morning and evening) on day 0, 1, 2, 3 and 4.
(§3) On D4, the explants of the batches ML and PML were placed on the 3D grid with 900 μl of HBSS and placed into the PolluBox® system.
(§4) 3 mL of the solution <<ML>> (supplemented with 150 μl/ml of NaCl 0.9%) were exposed by vaporization for 1 hour and half, as shown in the figure below.
Metallothionein (MT) is a unique heat-stable protein with a metal binding domain consisting of 20 cysteine residues. […] The immunostaining was performed using an automated slide processing system (Autostainer, Dako) and assessed by microscopical observation. […]
The images analyses were performed on all the images (9 to 12 images) of each batch using the CellD storing software (Olympus Microscopy, Matrix Optics (M)SdnBhd, Taman Mayhang, Maylasia). For each batch of explants, the percentage of the region of interest covered by the staining (stained surface percentage) was determined by image analysis. […]
Analyzed batches: T, P2, ML, P2ML (4 batches, 3 explants/batch, so 12 explants) at day 5 referred to as: TJ5, P2J5, MLJ5, P2MLJ5.

[1] = tested on: living human skin explants; test: Biochemical assay of MDA (lipid peroxidation) on living human skin explants exposed to pollutants; format: cell-based
Description: Product A (Table 11) was diluted in water to obtain the following products at concentrations: product P1=A at 4%, product P2=A at 2% and product P3=A at 1%.
as §1, §2, §3, §4
The MDA assay was realized with an enhanced method of the TBARs (Thiobarbituric Acid Reactive Species) assay. The MDA was assayed in HBSS medium by addition of TBARs solution (thiobarbituric acid, hydrochloric acid and tricholoroacetic acid) and placed in a water bath (80° C. for 15 minutes). A lot of substances (like glucose) which are not related with lipoperoxidation, react with thiobarbituric acid (ThioBarbituric Acid Reagents=TBARS), so to enhance the specificity of the assay, the MDA was extracted by a liquid/liquid extraction with butanol. The MDA in butanol was measured in spectrofluorimetry (excitation: 515 nm, emission: 550 nm) using a Tecan Infinite M200 Pro microplate reader. Using this assay, MDA contained in the culture medium BEMc on […] was measured for the 4 explants per batch. The MDA concentration was expressed in pmol of MDA/ml of the medium. Concerned batches: all batches on day 5, 4 explants per batch.
The average of the blank batch TJ5 was calculated (154.0 nmol/L). Then, for each explant of MLJ5, this average value was subtracted from […]. That corresponds to calculating the delta (increase) of MDA induced by ML for each explant compared to the average of the batch without ML, it is ΔML.
These average deltas were then compared to the average delta of MDA induction without treatment (ΔML).

## O=C(O)[C@@H]1CCCN1 [Combination P4, L-Proline]
MT-1H (Metallothionein)
  effect on pollutant-induced MT-1H: seems to strongly reduce the effect of the pollutants
[1]; MDA induction by pollutants, day 5
  MDA, variation ΔPML vs ΔML: −34% #^
[1]; after pollutant exposure (ΔPML vs ΔML)
  reduction of the increase of MDA: 34%
[1]; after pollutants exposure, day 5
  MDA, variation PML vs ML: −10% ns
